# Laboratory results reported in patent publication US6455507B1, “Benzimidazole derivatives” (SmithKline Beecham Corporation, priority 1997, dated 2002).
# Columns and labels:
# [1] = test system: HCMV strain AD169; experiment: Human Cytomegalovirus Assay (HCMV DNA hybridization); format: cell-based; details: HCMV strain AD169 on MRC5 cell monolayers, 5 days incubation, antiviral effect from HCMV DNA by quantitative hybridization
# Method: HCMV strain AD169 was grown on monolayers of human embryonic lung cells (MRC5 cells) in 96 well plates. After infection of the cells at a ratio of approximately 0.01 infectious virus particles per cell, the compounds to be tested were added to selected wells at six different concentrations, each in triplicate. The same concentrations of compound were also applied to wells containing monolayers of uninfected cells in order to assess compound cytotoxicity. The plates were incubated for 5 days, and the minimum cytotoxic dose was estimated from microscopic examination. The IC50 for antiviral effect was estimated from measurements of HCMV DNA in each well by blotting and quantitative specific DNA hybridization, similar to the method of Gadler (Antimicrob. Agents Chemother. 1983, 24, 370-374).
Molecule,IC50 [1] [nM],melting point,"IC50 ([1]; Human betaherpesvirus 5, 120 h) [nM]"
"2-Bromo-5,6-dichloro/4-fluoro-1-beta-D-ribopyranosyl-1H-benzimidazole [Example 24]",900,–,–
"O[C@@H]1CCCC[C@H]1n1c(Br)nc2cc(Cl)c(Cl)cc21 (racemic) [Example 45, (±)-trans-2-(2-Bromo-5,6-dichloro-1H-benzimidazol-1-yl)cyclohexanol]",–,201 to 202 °C,–
"O[C@@H]1CCCC[C@H]1n1c(NC2CC2)nc2cc(Cl)c(Cl)cc21 (racemic) [Example 46, (±)-trans-2-[5,6-Dichloro-2-(cyclopropylamino)-1H-benzimidazol-1-yl]cyclohexanol]",–,149 to 151 °C,–
"CC(=O)O[C@@H]1[C@H](OC(C)=O)[C@H](OC(C)=O)CO[C@H]1n1c(Br)nc2cc(Cl)c(Cl)cc21 [Example 1, 2-Bromo-5,6-dichloro-1-(2,3,4-tri-O-acetyl-beta-D-ribopyranosyl)-1H-benzimidazole]",–,100 to 110 °C,1000
"O[C@@H]1[C@H](O)[C@H](O)CO[C@H]1n1c(Br)nc2cc(Cl)c(Cl)cc21 [Example 2, 2-Bromo-5,6-dichloro-1-beta-D-ribopyranosyl-1H-benzimidazole]",–,175 °C (dec.),700
"CC(C)Nc1nc2cc(Cl)c(Cl)cc2n1[C@@H]1OC[C@@H](O)[C@@H](O)[C@H]1O [Example 3, 5,6-Dichloro-N-1(1-methylethyl)-1-beta-D-ribopyranosyl-1H-benzimidazole-2-amine]",22000,–,–
"CC(=O)O[C@@H]1[C@H](OC(C)=O)[C@@H](n2c(Br)nc3cc(Cl)c(Cl)cc32)OC[C@@H]1OC(C)=O [Example 4, 2-Bromo-5,6-dichloro-1-(2,3,4-tri-O-acetyl-beta-L-ribopyranosyl)-1H-benzimidazole]",–,110 °C,–
"Cc1cc2nc(Br)n([C@@H]3OC[C@@H](O)[C@@H](O)[C@H]3O)c2cc1Cl [Example 13, 2-Bromo-6-chloro-5-methyl-1-beta-D-ribopyranosyl-1H-benzimidazole]",–,170 to 175 °C (dec.),6000
"OC[C@@H]1OC[C@H](n2c(NC3CC3)nc3cc(Cl)c(Cl)cc32)C[C@H]1O [Example 39, (3R,5R,6S)-5,6-Dichloro-2-(cyclopropylamino)-1-(tetrahydro-5-hydroxy-6-(hydroxymethyl)2H-pyran-3-yl)-1H-benzimidazole]",–,98 to 99 °C,–
"OC[C@H]1OC[C@@H](n2c(Br)nc3cc(Cl)c(Cl)cc32)[C@H](O)[C@@H]1O [Example 40, (3R,4S,5S,6R)-2-Bromo-5,6-dichloro-1-(tetrahydro-4,5-dihydroxy-6-(Hydroxymethyl)-2H-pyran-3-yl)-1H-benzimidazole]",–,207 to 209 °C,–
"OC[C@H]1OC[C@@H](n2c(NC3CC3)nc3cc(Cl)c(Cl)cc32)[C@H](O)[C@@H]1O [Example 41, (3R,4S ,5S ,6R)-5,6-Dichloro-2-(cyclopropylamino)-1-(tetrahydro-4,5-dihydroxy-6-(hydroxymethyl)-2H-pyran-3-yl)-1H-benzimidazole]",–,244 °C (dec.),–
"OC[C@@H]1OC[C@H](n2c(Br)nc3cc(Cl)c(Cl)cc32)[C@@H](O)[C@H]1O [Example 42, (3S,4R,5R,6S)-2-Bromo-5,6-dichloro-1-(tetrahydro-4,5-dihydroxy-6-(hydroxymethyl)-2H-pyran-3-yl)-1H-benzimidazole]",–,207 to 208 °C,–
"OC[C@@H]1OC[C@H](n2c(NC3CC3)nc3cc(Cl)c(Cl)cc32)[C@@H](O)[C@H]1O [Example 43, (3S,4R,5R,6S)-5,6-Dichloro-2-(cyclopropylamino)-1-(tetrahydro-4,5-dihydroxy-6-(hydroxymethyl)-2H-pyran-3-yl)-1H-benzimidazole]",–,164 °C,–
"O[C@H]1[C@H](O)[C@@H](n2c(Br)nc3cc(Cl)c(Cl)cc32)OC[C@@H]1O [Example 57, 2-Bromo-5,6-dichloro-1-beta-L-xylopyranosyl-1H-benzimidazole]",–,164 to 165 °C,–
